{
  "source": "patent US10537575B2",
  "about": "“Phosphodiesterase inhibitors to repair brain and/or retinal injury in human newborns” (priority 2016, dated 2020)",
  "key": {"[1]": {"tested_on": "Long-Evans rat pups (term neonatal HIE model)", "assay": "Brain structure, hematoxylin and eosin coronal sections at P30", "settings": "HI", "description": "A well-established Vannucci rat model of term neonatal HIE, which combined a left common carotid artery ligation and a 2 hour exposure to hypoxia (8% oxygen) in 10-day-old (P10) rat pups, was used for the experiments, since this model is generally recognized to mimic the brain injuries observed in human term asphyxiated newborns. Briefly, the 10-day-old male Long-Evans rat pups were weighed and then deeply anesthetized with an intraperitoneal injection of fentanyl (0.2 mg/kg) and midazolam (1 mg/kg) to the point of unresponsiveness to noxious stimulation. Lidocaine-prilocaine cream (EMLA®; AstraZeneca Inc.) was applied to the ventral neck skin 30 minutes before surgery. The skin was cleaned with 2% chlorhexidine solution followed by 70% alcohol. A vertical incision was made along the ventral surface of the neck. The left common carotid artery was located, isolated, and then ligated with a single tight suture. Following the unilateral ligation, the skin incision was closed with an adhesive (n-butyl cyanoacrylate; 3 M VetBond Tissue Adhesive®; 3 M USA). The anesthesia was reversed with an intraperitoneal injection of naloxone (0.1 mg/kg) and flumazenil (1 mg/kg). […] For each rat pup, anesthesia time and surgical time were kept to a minimal time of less than 5-10 minutes. The pups were allowed to recover for approximately 1.5 h after surgery and then were placed in a sealed hypoxia chamber (Plastic Concepts, North Billerica, USA). The sealed chamber was infused with nitrogen until a level of 8% oxygen was reached, which was maintained for 2 h (oxygen analyzer model 600, Engineered Systems & Designs, Newark, Del.). The pups were allowed to recover for 30 minutes and then were returned to their cages with the mother. The rats undergoing the whole procedure were considered as the hypoxic-ischemic (HI) group (n=10-12 animals/groups). Sham operated rat pups (identical procedure as the HI group, but not the ligation and hypoxia) served as the control group (n=10-12 animals/groups). […]"}, "[2]": {"tested_on": "Long-Evans rat pups (term neonatal HIE model)", "assay": "Retinal histology, thicknesses of retinal layers at P30", "type": "in vivo", "parameters": "Effect size, RPE thickness / Effect size, OS thickness / Effect size, IS thickness / Effect size, ONL thickness / Effect size, OPL thickness / Effect size, INL thickness / Effect size, IPL thickness / Effect size, total thickness: scale not given here", "settings": "for Effect size, INL thickness / Effect size, IPL thickness / Effect size, IS thickness / Effect size, ONL thickness / Effect size, OPL thickness / Effect size, OS thickness / Effect size, RGC/FL thickness / Effect size, RPE thickness / Effect size, total thickness: compared to HI vehicle rat pups; for INL thickness / IPL thickness / IS thickness / ONL thickness / OPL thickness / OS thickness (outer segment) / RGC/FL thickness / RPE thickness / Total thickness: left eye, P30", "description": "A well-established rat model of term neonatal HIE (Vannucci model) (Patel S D et al., 2014, Patel S D et al., 2015; […] et al., 2009; […] et al., 2009; Rice J E, 3rd et al., 1981) and produces concomitant retinal injury (Jung S et al., 2015). Rats undergoing both the ligation and hypoxia were considered the HI group. Sham operated rats (identical procedure as the HI group, but without ligation and hypoxia) served as the control group. […] Different doses of sildenafil-i.e., low (2 mg/kg), medium (10 mg/kg), and high (50 mg/kg)-were used in the HI and sham rat pups (n=4-7 animals/group). At P30, the animals were sacrificed, and the eyes were enucleated. Retinal histology was performed as per a previously described protocol (Jung S et al., 2015). […] Then, the retinal layer thickness was plotted against eccentricity to obtain the spider graphs (FIG. 7B)."}, "[3]": {"tested_on": "Long-Evans rat pups (neonatal HI)", "assay": "Retinal immunohistochemistry after neonatal HI", "type": "in vivo", "settings": "sildenafil 2, 10 or 50 mg/kg 7 days, P30", "description": "Neonatal hypoxia-ischemia (HI) was induced in male Long-Evans rat pups at postnatal day 10 (P10) by left common carotid ligation followed by 2-hour exposure to 8% oxygen. […] At P30, rats were sacrificed and their eyes were extracted."}},
  "data": [
    {"smiles": "CCCc1nn(C)c2c(=O)[nH]c(-c3cc(S(=O)(=O)N4CCN(C)CC4)ccc3OCC)nc12", "note": "[sildenafil]", "values": [
      {"measurement": "total brain size, median (IQR)", "setting": "[1]; high-dose sildenafil, not different from sham vehicle", "result": "93.05 (91.53; 93.95)"},
      {"measurement": "total brain size, median (IQR)", "setting": "[1]; low-dose sildenafil, p<0.05 vs sham vehicle", "result": "92.19 (81.51; 97.58)"},
      {"measurement": "total brain size, median (IQR)", "setting": "[1]; medium-dose sildenafil, not different from sham vehicle", "result": "94.05 (84.4; 95.0)"},
      {"measurement": "thicknesses of affected retinal layers, response", "setting": "[2]; HI, 10 mg/kg and 50 mg/kg doses", "result": "significantly improved response in terms of thicknesses of all the affected layers"},
      {"measurement": "Effect size, INL thickness", "setting": "[2]; HI, Sild 2 mg/kg", "result": 4.94},
      {"measurement": "Effect size, IPL thickness", "setting": "[2]; HI, Sild 2 mg/kg", "result": 0.11},
      {"measurement": "Effect size, IS thickness", "setting": "[2]; HI, Sild 2 mg/kg", "result": 2.16},
      {"measurement": "Effect size, ONL thickness", "setting": "[2]; HI, Sild 2 mg/kg", "result": 0.71},
      {"measurement": "Effect size, OPL thickness", "setting": "[2]; HI, Sild 2 mg/kg", "result": 4.91},
      {"measurement": "Effect size, OS thickness", "setting": "[2]; HI, Sild 2 mg/kg", "result": 0.40},
      {"measurement": "Effect size, RGC/FL thickness", "setting": "[2]; HI, Sild 2 mg/kg", "result": 1.37},
      {"measurement": "Effect size, RPE thickness", "setting": "[2]; HI, Sild 2 mg/kg", "result": 0.25},
      {"measurement": "Effect size, total thickness", "setting": "[2]; HI, Sild 2 mg/kg", "result": 14.72},
      {"measurement": "Effect size, INL thickness", "setting": "[2]; HI, Sild 10 mg/kg", "result": 19.74},
      {"measurement": "Effect size, IPL thickness", "setting": "[2]; HI, Sild 10 mg/kg", "result": 42.08},
      {"measurement": "Effect size, IS thickness", "setting": "[2]; HI, Sild 10 mg/kg", "result": "−7.24"},
      {"measurement": "Effect size, ONL thickness", "setting": "[2]; HI, Sild 10 mg/kg", "result": "−19.22"},
      {"measurement": "Effect size, OPL thickness", "setting": "[2]; HI, Sild 10 mg/kg", "result": 8.67},
      {"measurement": "Effect size, OS thickness", "setting": "[2]; HI, Sild 10 mg/kg", "result": "−8.55"},
      {"measurement": "Effect size, RGC/FL thickness", "setting": "[2]; HI, Sild 10 mg/kg", "result": 18.37},
      {"measurement": "Effect size, RPE thickness", "setting": "[2]; HI, Sild 10 mg/kg", "result": "−0.73"},
      {"measurement": "Effect size, total thickness", "setting": "[2]; HI, Sild 10 mg/kg", "result": 53.09},
      {"measurement": "Effect size, INL thickness", "setting": "[2]; HI, Sild 50 mg/kg", "result": 21.65},
      {"measurement": "Effect size, IPL thickness", "setting": "[2]; HI, Sild 50 mg/kg", "result": 41.40},
      {"measurement": "Effect size, IS thickness", "setting": "[2]; HI, Sild 50 mg/kg", "result": "−7.50"},
      {"measurement": "Effect size, ONL thickness", "setting": "[2]; HI, Sild 50 mg/kg", "result": "−17.36"},
      {"measurement": "Effect size, OPL thickness", "setting": "[2]; HI, Sild 50 mg/kg", "result": 8.95},
      {"measurement": "Effect size, OS thickness", "setting": "[2]; HI, Sild 50 mg/kg", "result": "−9.86"},
      {"measurement": "Effect size, RGC/FL thickness", "setting": "[2]; HI, Sild 50 mg/kg", "result": 16.59},
      {"measurement": "Effect size, RPE thickness", "setting": "[2]; HI, Sild 50 mg/kg", "result": "−0.59"},
      {"measurement": "Effect size, total thickness", "setting": "[2]; HI, Sild 50 mg/kg", "result": 53.25},
      {"measurement": "topographic retinal thickness (spider graph)", "setting": "[2]; HI, low-dose of sildenafil", "result": "did not seem to reverse any of the HI-induced changes in retinal thickness, except in the inferior retina"},
      {"measurement": "topographic retinal thickness (spider graph)", "setting": "[2]; HI, medium and high doses of sildenafil", "result": "nearly normal inner retina at almost all retinal eccentricities"},
      {"measurement": "INL thickness", "setting": "[2]; HI, Sild 2 mg/kg", "result": "14.71 ± 2.57", "unit": "μm"},
      {"measurement": "IPL thickness", "setting": "[2]; HI, Sild 2 mg/kg", "result": "2.95 ± 2.60", "unit": "μm"},
      {"measurement": "IS thickness", "setting": "[2]; HI, Sild 2 mg/kg", "result": "23.83 ± 3.12", "unit": "μm"},
      {"measurement": "ONL thickness", "setting": "[2]; HI, Sild 2 mg/kg", "result": "70.88 ± 2.88", "unit": "μm"},
      {"measurement": "OPL thickness", "setting": "[2]; HI, Sild 2 mg/kg", "result": "5.72 ± 3.05", "unit": "μm"},
      {"measurement": "OS thickness (outer segment)", "setting": "[2]; HI, Sild 2 mg/kg", "result": "38.14 ± 3.66", "unit": "μm"},
      {"measurement": "RGC/FL thickness", "setting": "[2]; HI, Sild 2 mg/kg", "result": "2.28 ± 2.28", "unit": "μm"},
      {"measurement": "RPE thickness", "setting": "[2]; HI, Sild 2 mg/kg", "result": "8.88 ± 0.24", "unit": "μm"},
      {"measurement": "Total thickness", "setting": "[2]; HI, Sild 2 mg/kg", "result": "167.28 ± 2.63", "unit": "μm"},
      {"measurement": "INL thickness", "setting": "[2]; HI, Sild 10 mg/kg", "result": "29.50 ± 1.70", "unit": "μm"},
      {"measurement": "IPL thickness", "setting": "[2]; HI, Sild 10 mg/kg", "result": "44.93 ± 7.35", "unit": "μm"},
      {"measurement": "IS thickness", "setting": "[2]; HI, Sild 10 mg/kg", "result": "14.43 ± 1.15", "unit": "μm"},
      {"measurement": "ONL thickness", "setting": "[2]; HI, Sild 10 mg/kg", "result": "50.95 ± 0.76", "unit": "μm"},
      {"measurement": "OPL thickness", "setting": "[2]; HI, Sild 10 mg/kg", "result": "9.48 ± 0.38", "unit": "μm"},
      {"measurement": "OS thickness (outer segment)", "setting": "[2]; HI, Sild 10 mg/kg", "result": "29.18 ± 2.14", "unit": "μm"},
      {"measurement": "RGC/FL thickness", "setting": "[2]; HI, Sild 10 mg/kg", "result": "19.28 ± 3.36", "unit": "μm"},
      {"measurement": "RPE thickness", "setting": "[2]; HI, Sild 10 mg/kg", "result": "7.89 ± 0.35", "unit": "μm"},
      {"measurement": "Total thickness", "setting": "[2]; HI, Sild 10 mg/kg", "result": "205.64 ± 14.20", "unit": "μm"},
      {"measurement": "INL thickness", "setting": "[2]; HI, Sild 50 mg/kg", "result": "31.42 ± 1.66", "unit": "μm"},
      {"measurement": "IPL thickness", "setting": "[2]; HI, Sild 50 mg/kg", "result": "44.25 ± 11.86", "unit": "μm"},
      {"measurement": "IS thickness", "setting": "[2]; HI, Sild 50 mg/kg", "result": "14.16 ± 0.25", "unit": "μm"},
      {"measurement": "ONL thickness", "setting": "[2]; HI, Sild 50 mg/kg", "result": "52.81 ± 1.06", "unit": "μm"},
      {"measurement": "OPL thickness", "setting": "[2]; HI, Sild 50 mg/kg", "result": "9.76 ± 0.84", "unit": "μm"},
      {"measurement": "OS thickness (outer segment)", "setting": "[2]; HI, Sild 50 mg/kg", "result": "27.87 ± 2.09", "unit": "μm"},
      {"measurement": "RGC/FL thickness", "setting": "[2]; HI, Sild 50 mg/kg", "result": "17.50 ± 4.07", "unit": "μm"},
      {"measurement": "RPE thickness", "setting": "[2]; HI, Sild 50 mg/kg", "result": "8.03 ± 0.27", "unit": "μm"},
      {"measurement": "Total thickness", "setting": "[2]; HI, Sild 50 mg/kg", "result": "205.80 ± 14.22", "unit": "μm"},
      {"measurement": "photoreceptor degeneration", "setting": "[2]; present example (rat pups)", "result": "did not induce photoreceptor degeneration"},
      {"measurement": "neuroinflammation, number of astrocytes in retina", "setting": "[3]", "result": "decreasing the number of astrocytes"},
      {"measurement": "number of retinal ganglion cells and bipolar cells", "setting": "[3]", "result": "restored the number of retinal ganglion cells and bipolar cells"}
    ]}
  ]
}
